This note sets out measurements from ChEMBL document CHEMBL4346743, “Design and synthesis of biotinylated Hexylselen as a probe to identify KGA allosteric inhibitors by a convenient biomolecular interaction assay” (Bioorg Med Chem Lett, 2019).

The target of assay [1] is T1, Glutaminase kidney isoform, mitochondrial (Homo sapiens) (UniProt O94925).
T1 sequence (whole entry): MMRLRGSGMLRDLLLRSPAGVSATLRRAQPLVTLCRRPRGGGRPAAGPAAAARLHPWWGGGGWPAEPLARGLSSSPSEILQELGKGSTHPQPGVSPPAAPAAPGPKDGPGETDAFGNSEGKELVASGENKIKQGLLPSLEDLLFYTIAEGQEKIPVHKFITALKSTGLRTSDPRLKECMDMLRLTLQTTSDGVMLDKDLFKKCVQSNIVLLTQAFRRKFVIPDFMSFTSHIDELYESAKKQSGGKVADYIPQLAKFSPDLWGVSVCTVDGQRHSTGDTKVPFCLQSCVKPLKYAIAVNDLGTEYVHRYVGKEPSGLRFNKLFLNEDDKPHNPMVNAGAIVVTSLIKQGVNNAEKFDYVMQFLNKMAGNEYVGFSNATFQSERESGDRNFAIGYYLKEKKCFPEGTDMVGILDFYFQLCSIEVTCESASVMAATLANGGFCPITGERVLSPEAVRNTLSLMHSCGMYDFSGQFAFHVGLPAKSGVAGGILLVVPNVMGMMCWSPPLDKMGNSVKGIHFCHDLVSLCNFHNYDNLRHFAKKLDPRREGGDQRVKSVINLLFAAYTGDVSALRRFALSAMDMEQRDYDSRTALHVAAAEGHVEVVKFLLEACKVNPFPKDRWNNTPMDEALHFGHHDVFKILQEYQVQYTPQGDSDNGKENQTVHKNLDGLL
The experiment in a line: Competitive binding affinity to human KGA after 1 hr in presence of ebselen by biolayer interferometry. (In BLI a coated tip is dipped into the sample, and binding shifts an interference pattern.)

For assay [2], the target named is T1, Glutaminase kidney isoform, mitochondrial (Homo sapiens). Put plainly: Competitive binding affinity to human KGA in presence of BPTES by biolayer interferometry.
Assay [3] deals with T2, Glutaminase kidney isoform, mitochondrial (Homo sapiens, UniProt O94925).
T2 sequence (O94925 whole entry): T1 sequence (whole entry)
The experiment in a line: Binding affinity to human KGA assessed as dissociation constant.

Assay [4] deals with T1, Glutaminase kidney isoform, mitochondrial (Homo sapiens). Put plainly: Binding affinity to human KGA assessed as dissociation rate constant at 33 uM.
The target is the same in assay [5]. Put plainly: Binding affinity to human KGA assessed as association rate constant at 33 uM.
The target of assay [6] is T2, Glutaminase kidney isoform, mitochondrial. Put plainly: Allosteric inhibition of human KGA assessed as reduction in glutamate formation using glutamine as substrate pretreated with enzyme for 15 mins followed by substrate addition and measured after 3 hrs by KGA/GDH coupled assay.

The source made the active and inactive calls. The calls are words filed in the database; no cut-off is given here.

As usually defined, the Kd is a measure of binding affinity in units of concentration. As a reminder, the IC50 is the concentration that inhibits the measured activity by half. `COc1ccc2[se]n(CCCCCCn3[se]c4ccc(OCCCCC[C@@H]5SC[C@@H]6NC(=O)N[C@@H]65)cc4c3=O)c(=O)c2c1`: the result in assay [1] was inactive. For the same molecule, the outcome in assay [2] was Active. Also, the Kd in assay [3] worked out at 142 nM. Also, in assay [4], the Kdiss is 2 ×10⁻³ /s. In addition, in assay [5], the Ka was determined as 1.4 ×10⁴ /Ms. Besides, in assay [6], the IC50 came to 73 nM.
